Patent US20260347373A1, “HETEROCYCLIC COMPOUNDS, COMPOSITIONS THEREOF, AND METHODS OF TREATMENT THEREWITH” (BeOne Medicines I GmbH, priority 2023, published 2026)
Where two headings read alike, the source gives them in different places.

Columns and labels:
WT KRAS = WT KRAS (Homo sapiens, UniProt P01116); experiment: KRAS WT Probe Displacement Assay (TR-FRET, GDP-loaded); type: binding
Text: (§1) The synthetic routes of probe 1 and 2, which have been disclosed in PCT/CN2022/070676, are hereby incorporated herein.

KRAS G12D = KRAS G12D (Homo sapiens, UniProt P01116, G12D); experiment: KRAS G12D Probe Displacement Assay (TR-FRET, GDP-loaded); type: binding
KRAS G12D, sequence (P01116 1-188 isoform P01116-2 G12D): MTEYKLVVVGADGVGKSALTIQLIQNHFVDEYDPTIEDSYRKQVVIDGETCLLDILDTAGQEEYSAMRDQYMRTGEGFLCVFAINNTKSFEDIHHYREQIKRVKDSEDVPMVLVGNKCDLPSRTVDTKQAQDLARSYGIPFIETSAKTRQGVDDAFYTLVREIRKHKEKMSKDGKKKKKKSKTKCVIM
Text: as §1

[1] = KRAS WT, read-out: KRAS^WT Probe Displacement Assay IC50
[2] = KRAS G12D, read-out: KRAS^G12D Probe Displacement Assay IC50

WT KRAS, sequence (P01116 1-188 isoform P01116-2): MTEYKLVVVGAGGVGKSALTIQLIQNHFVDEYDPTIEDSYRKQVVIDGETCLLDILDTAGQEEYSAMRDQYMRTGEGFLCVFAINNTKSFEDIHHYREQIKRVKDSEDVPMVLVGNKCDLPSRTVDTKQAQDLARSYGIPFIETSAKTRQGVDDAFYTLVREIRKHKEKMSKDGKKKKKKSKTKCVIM

Row | SMILES | IC50 (WT KRAS; [1]) | IC50 (KRAS G12D; [2]) | IC50 (WT KRAS; KRAS^WT Probe Displacement Assay IC50, KRAS WT) | IC50 (KRAS G12D; KRAS^G12D Probe Displacement Assay IC50, KRAS G12D)
1 | Cc1cc(N)cc(-c2nc3c4c(nc(OCC5(C(C)N(C)C)CC5)nc4c2F)N2C[C@H]4CC[C@H](N4)[C@H]2CCO3)c1C(F)(F)F (stereo partly drawn) [Example 135, 3-((6aR,7S,10R)-13-((1-(1-(dimethylamino)ethyl)cyclopropyl)methoxy)-1-fluoro-5,6,6a,7,8,9,10,11-octahydro-4-oxa-3,11a,12,14,15-pentaaza-7,10-methanocyclohepta[4,5]cycloocta [1,2,3-de]naphthalen-2-yl)-5-methyl-4-(trifluoromethyl)aniline] | 3 to 1000 nM | < 0.3 nM | – | –
2 | C[C@H](Oc1nc2c3c(nc(-c4cc(N)cc(Cl)c4C(F)(F)F)c(F)c3n1)OCC[C@@H]1[C@@H]3CC[C@H](CN21)N3)[C@@H]1CCCN1C [Example 140, 3-chloro-5-((6aR,7S,10R)-1-fluoro-13-((S)-1-((S)-1-methylpyrrolidin-2-yl)ethoxy)-5,6,6a,7,8,9,10,11-octahydro-4-oxa-3,11a,12,14,15-pentaaza-7,10-methano-cyclohepta[4,5]cycloocta [1,2,3-de]naphthalen-2-yl)-4-(trifluoromethyl)aniline] | 3 to 1000 nM | < 0.3 nM | – | –
3 | [2H]C([2H])([2H])N1CCC[C@H]1[C@H](C)Oc1nc2c3c(nc(-c4cc(N)cc(C)c4C(F)(F)F)c(F)c3n1)OCC[C@@H]1[C@@H]3CC[C@H](CN21)N3 [Example 141, 3-((6aR,7S,10R)-1-fluoro-13-((S)-1-((S)-1-(methyl-d3)pyrrolidin-2-yl)ethoxy)-5,6,6a,7,8,9,10,11-octahydro-4-oxa-3,11a,12,14,15-pentaaza-7,10-methano-cyclohepta[4,5]cycloocta [1,2,3-de]naphthalen-2-yl)-5-methyl-4-(trifluoromethyl)aniline] | 3 to 1000 nM | < 0.3 nM | – | –
4 | [2H]C([2H])([2H])N1CC[C@H](OC)[C@H]1[C@H](C)Oc1nc2c3c(nc(-c4cc(N)cc(C)c4C(F)(F)F)c(F)c3n1)OCC[C@@H]1[C@@H]3CC[C@H](CN21)N3 [Example 142, 3-((6aR,7S,10R)-1-fluoro-13-((S)-1-((2R,3S)-3-methoxy-1-(methyl-d3)pyrrolidin-2-yl)ethoxy)-5,6,6a,7,8,9,10,11-octahydro-4-oxa-3,11a,12,14,15-pentaaza-7,10-methano-cyclohepta[4,5]cycloocta [1,2,3-de]naphthalen-2-yl)-5-methyl-4-(trifluoromethyl)aniline] | 3 to 1000 nM | < 0.3 nM | – | –
5 | Cc1cc(N)cc(-c2nc3c4c(nc(O[C@@H](C)[C@@H]5CC6(CC6)CN5C)nc4c2F)N2C[C@H]4CC[C@H](N4)[C@H]2CCO3)c1C(F)(F)F [Example 143, 3-((6aR,7S,10R)-1-fluoro-13-((S)-1-((S)-5-methyl-5-azaspiro[2.4]heptan-6-yl)ethoxy)-5,6,6a,7,8,9,10,11-octahydro-4-oxa-3,11a,12,14,15-pentaaza[7,10]methanocyclohepta [4,5]cycloocta[1,2,3-de]naphthalen-2-yl)-5-methyl-4-(trifluoromethyl)aniline] | 3 to 1000 nM | < 0.3 nM | – | –
6 | Cc1cc(N)cc(-c2nc3c4c(nc(OCC5(CN6CCC(=C(F)F)CC6)CC5)nc4c2F)N2C[C@H]4CC[C@H](N4)[C@H]2CCO3)c1C(F)(F)F [Example 146, 3-((6aR,7S,10R)-13-((1-((4-(difluoromethylene)piperidin-1-yl)methyl)cyclopropyl)methoxy)-1-fluoro-5,6,6a,7,8,9,10,11-octahydro-4-oxa-3,11a,12,14,15-pentaaza-7,10-methano-cyclohepta[4,5]cycloocta [1,2,3-de]naphthalen-2-yl)-5-methyl-4-(trifluoromethyl) aniline] | – | – | 0.3 to 3 nM | < 0.3 nM
